Laboratory results taken from ChEMBL document CHEMBL5042533, “Structural Optimization and Structure-Activity Relationship Studies of 6,6-Dimethyl-4-(phenylamino)-6H-pyrimido[5,4-b][1,4]oxazin-7(8H)-one Derivatives as A New Class of Potent Inhibitors of Pan-Trk and Their Drug-Resistant Mutants” (J Med Chem, 2022).
pIC50, pKi: −log10 of the molar value. Active and inactive are the calls of the source. The rule behind the calls is not given here.

Legend:
[1] = tested on: BaF3; assay: Inhibition of PLCgamma1 phosphorylation in mouse BaF3 cells expressing CD74 fused TrkA incubated for 6 hrs by Western blot analysis; assay type: cell-based; conditions: dose 3-300 nM
[2] = Binding affinity to TrkA G667S mutant (unknown origin) assessed as inhibition constant by radiometric assay; parameters: species or system Homo sapiens
[3] = tested on: BaF3; assay: cells; conditions: Mus musculus
Description: Cytotoxicity against mouse BaF3 cells harboring TEL fused TrkC G613R mutant assessed as inhibition of cell growth by MTT assay

[4] = biological target: Epithelial discoidin domain-containing receptor 1 (Homo sapiens, UniProt Q08345); assay: Inhibition of human DDR1 in presence of ATP by radiometric assay
[5] = Cmax in Sprague-Dawley rat at 10 mg/kg, po measured up to 24 hrs by HPLC method; assay type: ADME, organism-based; parameters: route oral, dose 10 mg/kg, time <=24; conditions: in vivo
[6] = Clearance in Sprague-Dawley rat at 10 mg/kg, po measured up to 24 hrs by HPLC method; assay type: ADME, organism-based; conditions: in vivo
[7] = tested on: BaF3; assay: Inhibition of ERK phosphorylation in mouse BaF3 cells expressing CD74 fused TrkA incubated for 6 hrs by Western blot analysis; assay type: cell-based; conditions: dose 3-300 nM
[8] = MRT (0 to t) in Sprague-Dawley rat at 10 mg/kg, po measured up to 24 hrs by HPLC method; assay type: ADME, organism-based; conditions: in vivo
[9] = tested on: BaF3; assay: Antitumour activity against larotrectinib-resistant mouse BaF3 cells expressing TEL fused TrkC G623R mutant allografted in NOD-SCID mouse assessed as reduction in tumor growth at 10 mg/kg/day, iv qd measured every 2 or 3 days for 10 days; assay type: functional, organism-based; conditions: time 10.0 day
[10] = Tmax in Sprague-Dawley rat at 10 mg/kg, po measured up to 24 hrs by HPLC method; assay type: ADME, organism-based; conditions: in vivo
[11] = biological target: Serine/threonine-protein kinase AKT (Homo sapiens) (UniProt P31751+Q9Y243+P31749); assay: Inhibition of AKT phosphorylation in human KM12-luc cells incubated for 6 hrs by Western blot analysis; assay type: cell-based; conditions: dose 3-300 nM
[12] = biological target: T1, 1-phosphatidylinositol 4,5-bisphosphate phosphodiesterase gamma-1 (Homo sapiens) (UniProt P19174); assay: Inhibition of PLCgamma1 phosphorylation in human KM12-luc cells incubated for 6 hrs by Western blot analysis; assay type: cell-based; conditions: dose 3-300 nM
T1 sequence (whole entry): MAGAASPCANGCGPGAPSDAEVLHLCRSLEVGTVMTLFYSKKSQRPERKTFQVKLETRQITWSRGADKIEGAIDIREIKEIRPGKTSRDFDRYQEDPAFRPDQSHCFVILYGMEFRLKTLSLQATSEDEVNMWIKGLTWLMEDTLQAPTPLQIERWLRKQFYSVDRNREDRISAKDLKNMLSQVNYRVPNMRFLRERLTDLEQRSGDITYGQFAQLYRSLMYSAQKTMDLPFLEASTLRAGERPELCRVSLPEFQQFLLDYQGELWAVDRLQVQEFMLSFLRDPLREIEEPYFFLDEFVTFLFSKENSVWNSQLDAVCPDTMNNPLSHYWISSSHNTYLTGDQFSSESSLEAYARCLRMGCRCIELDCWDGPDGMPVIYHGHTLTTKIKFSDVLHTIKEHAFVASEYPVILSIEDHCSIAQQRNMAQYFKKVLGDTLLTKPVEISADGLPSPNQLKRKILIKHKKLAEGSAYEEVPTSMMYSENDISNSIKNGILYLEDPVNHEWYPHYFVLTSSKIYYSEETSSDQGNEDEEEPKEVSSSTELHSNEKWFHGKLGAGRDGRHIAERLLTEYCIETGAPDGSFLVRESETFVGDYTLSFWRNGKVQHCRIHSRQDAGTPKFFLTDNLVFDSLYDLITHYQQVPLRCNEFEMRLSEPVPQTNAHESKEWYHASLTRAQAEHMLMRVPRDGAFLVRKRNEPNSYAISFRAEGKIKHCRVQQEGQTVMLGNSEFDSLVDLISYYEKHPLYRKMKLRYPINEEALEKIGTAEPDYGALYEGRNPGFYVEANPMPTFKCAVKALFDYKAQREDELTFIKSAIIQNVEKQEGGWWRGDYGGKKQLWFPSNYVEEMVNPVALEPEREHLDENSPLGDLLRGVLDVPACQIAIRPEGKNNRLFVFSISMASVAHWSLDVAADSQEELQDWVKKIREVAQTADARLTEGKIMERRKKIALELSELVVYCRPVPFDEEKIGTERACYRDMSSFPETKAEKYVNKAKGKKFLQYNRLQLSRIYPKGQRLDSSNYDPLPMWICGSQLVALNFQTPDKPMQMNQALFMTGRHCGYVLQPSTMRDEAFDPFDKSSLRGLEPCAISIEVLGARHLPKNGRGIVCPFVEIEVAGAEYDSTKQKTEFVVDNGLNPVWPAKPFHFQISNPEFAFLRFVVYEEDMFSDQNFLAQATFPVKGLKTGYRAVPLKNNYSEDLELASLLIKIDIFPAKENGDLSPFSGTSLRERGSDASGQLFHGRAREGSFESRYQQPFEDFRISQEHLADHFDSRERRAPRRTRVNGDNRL

[13] = tested on: BaF3; assay: Downregulation of TrkA protein expression in mouse BaF3 cells expressing CD74 fused TrkA incubated for 6 hrs by Western blot analysis; assay type: functional, cell-based
[14] = Toxicity in NOD-SCID mouse assessed as histological changes in kidney at 5 to 20 mg/kg, iv measured after 10 days by H and E staining based microscopic analysis; assay type: organism-based; conditions: in vivo, 240 h, dose 5-20 mg/kg, time 10 day
[15] = tested on: BaF3; assay: cells; conditions: Mus musculus, BaF3, 72 h
Description: Cytotoxicity against mouse BaF3 cells expressing LMNA fused TrkA G667S mutant assessed as inhibition of cell growth incubated for 3 days by CCK-8 assay

[16] = Toxicity in NOD-SCID mouse assessed as histological changes in liver at 5 to 20 mg/kg, iv measured after 10 days by H and E staining based microscopic analysis; assay type: organism-based; conditions: in vivo, 240 h, dose 5-20 mg/kg, time 10 day
[17] = Toxicity in NOD-SCID mouse assessed as histological changes in spleen at 5 to 20 mg/kg, iv measured after 10 days by H and E staining based microscopic analysis; assay type: organism-based; conditions: in vivo, 240 h, dose 5-20 mg/kg, time 10 day
[18] = tested on: BaF3; assay: Inhibition of ERK phosphorylation in mouse BaF3 cells expressing TEL fused TrkC G623R mutant incubated for 6 hrs by Western blot analysis; assay type: cell-based; conditions: dose 3-300 nM
[19] = in vitro; conditions: mouse, BaF3 cells
Description: Cytotoxicity against mouse BaF3 assessed as inhibition of cell growth incubated for 3 days by CCK-8 assay

[20] = Half life in Sprague-Dawley rat at 10 mg/kg, po measured up to 24 hrs by HPLC method; assay type: ADME, organism-based; conditions: in vivo
[21] = tested on: BaF3; assay: cells; conditions: Mus musculus, BaF3, 72 h; remark: listed apart in the source
Description: Cytotoxicity against mouse BaF3 cells expressing CD74 fused TrkA assessed as inhibition of cell growth incubated for 3 days by CCK-8 assay

[22] = Oral bioavailability in Sprague-Dawley rat at 10 mg/kg measured up to 24 hrs by HPLC method; assay type: ADME, organism-based; conditions: in vivo
[23] = AUC(0 to t) in Sprague-Dawley rat at 10 mg/kg, po measured up to 24 hrs by HPLC method; assay type: ADME, organism-based; parameters: route oral, dose 10 mg/kg, time <=24; conditions: in vivo
[24] = Half life in Sprague-Dawley rat at 5 mg/kg, iv measured up to 24 hrs by HPLC method; assay type: ADME, organism-based; conditions: in vivo
[25] = tested on: BaF3; assay: In vivo inhibition of Trk signalling in NOD-SCID mouse allografted with mouse BaF3 cells expressing TEL fused TrkC G623R mutant assessed as reduction in p-Akt level at 5 to 20 mg/kg, iv qd measured after 10 days by IHC staining based analysis; assay type: functional, organism-based; conditions: dose 5-20 mg/kg, time 10.0 day
[26] = tested on: BaF3; assay: cells; conditions: Mus musculus, BaF3, 72 h; remark: listed apart in the source
Description: Cytotoxicity against mouse BaF3 cells expressing TEL fused TrkA assessed as inhibition of cell growth incubated for 3 days by CCK-8 assay

Epithelial discoidin domain-containing receptor 1, sequence (Q08345 whole entry, the tested form may be a part): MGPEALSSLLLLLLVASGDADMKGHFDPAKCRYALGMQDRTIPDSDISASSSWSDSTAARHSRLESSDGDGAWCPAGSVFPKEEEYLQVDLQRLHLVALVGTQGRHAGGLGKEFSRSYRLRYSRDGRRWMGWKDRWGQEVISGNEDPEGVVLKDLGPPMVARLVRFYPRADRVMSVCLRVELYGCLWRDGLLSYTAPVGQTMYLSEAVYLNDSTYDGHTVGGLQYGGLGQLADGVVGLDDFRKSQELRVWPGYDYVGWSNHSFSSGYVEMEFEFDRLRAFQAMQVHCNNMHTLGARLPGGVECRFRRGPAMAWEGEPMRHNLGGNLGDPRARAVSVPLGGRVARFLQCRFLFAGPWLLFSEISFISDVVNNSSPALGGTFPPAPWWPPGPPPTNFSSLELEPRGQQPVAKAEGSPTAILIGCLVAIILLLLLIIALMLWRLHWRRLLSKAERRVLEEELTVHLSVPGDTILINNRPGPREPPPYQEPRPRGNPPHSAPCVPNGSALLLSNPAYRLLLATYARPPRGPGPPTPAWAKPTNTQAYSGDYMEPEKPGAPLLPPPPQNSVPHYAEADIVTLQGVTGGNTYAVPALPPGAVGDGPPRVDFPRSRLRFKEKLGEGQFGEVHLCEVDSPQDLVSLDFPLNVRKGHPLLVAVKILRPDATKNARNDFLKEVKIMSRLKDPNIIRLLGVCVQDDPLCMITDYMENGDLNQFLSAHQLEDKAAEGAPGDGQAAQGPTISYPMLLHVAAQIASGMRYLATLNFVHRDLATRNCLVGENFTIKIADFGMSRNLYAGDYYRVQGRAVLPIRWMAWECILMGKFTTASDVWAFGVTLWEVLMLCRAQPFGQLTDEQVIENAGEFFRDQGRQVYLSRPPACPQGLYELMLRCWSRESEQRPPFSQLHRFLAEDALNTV
Serine/threonine-protein kinase AKT (Homo sapiens), sequence (P31749 whole entry, looked up): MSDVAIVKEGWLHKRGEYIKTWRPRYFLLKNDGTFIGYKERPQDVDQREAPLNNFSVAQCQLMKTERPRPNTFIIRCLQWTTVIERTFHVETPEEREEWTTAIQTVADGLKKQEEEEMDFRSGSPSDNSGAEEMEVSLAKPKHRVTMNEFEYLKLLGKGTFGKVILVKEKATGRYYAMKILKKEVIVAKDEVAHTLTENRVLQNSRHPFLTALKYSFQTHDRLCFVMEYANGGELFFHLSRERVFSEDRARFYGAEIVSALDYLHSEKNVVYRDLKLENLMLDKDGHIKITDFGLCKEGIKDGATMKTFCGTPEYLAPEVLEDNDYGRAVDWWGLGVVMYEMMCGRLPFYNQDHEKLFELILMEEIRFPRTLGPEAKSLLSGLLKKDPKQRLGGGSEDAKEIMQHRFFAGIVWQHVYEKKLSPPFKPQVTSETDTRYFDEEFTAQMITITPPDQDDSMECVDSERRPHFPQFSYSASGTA
Serine/threonine-protein kinase AKT (Homo sapiens), sequence (P31751 whole entry, looked up): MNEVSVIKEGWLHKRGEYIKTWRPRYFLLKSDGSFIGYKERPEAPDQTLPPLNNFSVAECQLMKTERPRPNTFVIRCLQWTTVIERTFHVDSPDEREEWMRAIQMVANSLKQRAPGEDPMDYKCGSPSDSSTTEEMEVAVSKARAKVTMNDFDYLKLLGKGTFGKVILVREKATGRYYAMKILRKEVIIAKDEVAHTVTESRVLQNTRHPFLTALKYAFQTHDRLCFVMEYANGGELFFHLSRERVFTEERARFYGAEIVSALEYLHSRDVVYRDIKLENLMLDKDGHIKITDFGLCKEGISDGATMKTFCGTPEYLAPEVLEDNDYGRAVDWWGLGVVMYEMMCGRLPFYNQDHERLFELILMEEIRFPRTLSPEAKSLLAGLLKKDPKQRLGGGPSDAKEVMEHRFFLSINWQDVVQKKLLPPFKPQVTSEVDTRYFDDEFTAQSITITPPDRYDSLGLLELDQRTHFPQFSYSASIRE
Serine/threonine-protein kinase AKT (Homo sapiens), sequence (Q9Y243 whole entry, looked up): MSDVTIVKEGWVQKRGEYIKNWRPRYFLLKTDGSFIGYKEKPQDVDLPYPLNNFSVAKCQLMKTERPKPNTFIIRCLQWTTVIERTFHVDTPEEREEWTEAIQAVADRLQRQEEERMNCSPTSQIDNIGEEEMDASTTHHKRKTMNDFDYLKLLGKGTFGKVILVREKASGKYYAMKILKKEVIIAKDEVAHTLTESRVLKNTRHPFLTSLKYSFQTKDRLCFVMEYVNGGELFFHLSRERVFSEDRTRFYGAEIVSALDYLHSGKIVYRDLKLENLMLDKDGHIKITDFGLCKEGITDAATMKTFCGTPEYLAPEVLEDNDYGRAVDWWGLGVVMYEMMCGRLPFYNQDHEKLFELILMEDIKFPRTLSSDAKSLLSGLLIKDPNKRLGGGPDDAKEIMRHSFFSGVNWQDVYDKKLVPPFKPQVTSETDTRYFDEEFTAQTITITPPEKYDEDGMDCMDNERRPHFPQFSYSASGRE

**Q.** For Cc1cc(NC(=O)Nc2cc(C(C)(C)C)nn2-c2ccc(Cl)cc2)ccc1Nc1ncnc2c1OC(C)(C)C(=O)N2, which inhibition [1] is on record?
**A.** The inhibition was “Active”.

**Q.** And the pKi [2]?
**A.** Its pKi is 8.70.

**Q.** And the pIC50 [3]?
**A.** Its pIC50 is 7.82.

**Q.** What about the pIC50 [4] of the same molecule?
**A.** Its pIC50 is 6.90.

**Q.** And the Cmax [5]?
**A.** The Cmax was 1800 ng/mL.

**Q.** What about the CL/F [6] of the same molecule?
**A.** The CL/F was 11.8 mL/min/kg.

**Q.** And the inhibition [7]?
**A.** The inhibition was “Active”.

**Q.** And the MRT last at 24 h [8]?
**A.** Its MRT last at 24 h is 2.94 h.

**Q.** And the Activity [9]?
**A.** The Activity was “Active”.

**Q.** What about the Tmax [10] of the same molecule?
**A.** Its Tmax is 2 h.

**Q.** And the inhibition [11]?
**A.** Its inhibition is “Active”.

**Q.** What about the inhibition [12] of the same molecule?
**A.** The inhibition was “Active”.

**Q.** And the Activity [13]?
**A.** The Activity was “inactive”.

**Q.** What about the Activity [14] of the same molecule?
**A.** Its Activity is “Non-Toxic”.

**Q.** What about the pIC50 [15] of the same molecule?
**A.** The pIC50 was 8.22.

**Q.** And the Activity [16]?
**A.** Its Activity is “Non-Toxic”.

**Q.** And the Activity [17]?
**A.** Its Activity is “Non-Toxic”.

**Q.** What about the inhibition [18] of the same molecule?
**A.** Its inhibition is “Active”.

**Q.** And the IC50 at 3 days [19]?
**A.** The IC50 at 3 days was 9530 nM.

**Q.** What about the half-life [20] of the same molecule?
**A.** Its half-life is 1.78 h.

**Q.** What about the pIC50 [21] of the same molecule?
**A.** Its pIC50 is 9.30.

**Q.** And the bioavailability [22]?
**A.** Its bioavailability is 19.8%.

**Q.** What about the AUC(0-t) at 24 h [23] of the same molecule?
**A.** The AUC(0-t) at 24 h was 7080 ng·h/mL.

**Q.** And the half-life [24]?
**A.** The half-life was 1.5 h.

**Q.** What about the inhibition [25] of the same molecule?
**A.** The inhibition was “Active”.

**Q.** And the pIC50 [26]?
**A.** Its pIC50 is 9.00.
